The source of these data is PubChem BioAssay AID1949 (Southern Research Institute, 2009).

SMILES strings stand for the structures. Converted amounts (≈) assume the structure as drawn. Results filed as inconclusive are left out. The source made the active and inactive calls. The rule behind the calls is not given here.

For the test, the system named is M. tuberculosis H37Rv growth inhibition. Briefly: Mycobacterium tuberculosis H37Rv growth inhibition, cell based, confirmatory dose response (AID 1949).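 Note: bacteria grown 7 days with compound before Alamar blue readout.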

A word on the IC50: it is the concentration at which inhibition is half-maximal. Turning to `COc1ccc(CCNc2nc(-c3ccccn3)cs2)cc1OC`, the IC50 was 0.72 µg/mL (≈ 2.11 µM).

As for `Cc1ccc(-c2nn(-c3ccccc3)cc2CNCc2ccccc2)o1`, the IC50 is 9.25 µg/mL (≈ 26.9 µM).

Regarding `Cc1ccc(C)c(NC(=O)c2ccc(-c3ccccc3Cl)o2)c1`, the IC50 is 12.9 µg/mL (≈ 39.7 µM).

Take `COC(=O)c1ccc(/C=C/C(=O)c2cccs2)cc1`: the IC50 was 29.1 µg/mL (≈ 107 µM).

In the case of `COc1ccccc1C(=O)NNC(=S)NC(=O)C1CCCCC1`, the IC50 was 3.02 µg/mL (≈ 9 µM).

With `Cc1ccc(NCCC(=O)c2ccc([N+](=O)[O-])cc2)cc1C`, the IC50 is 1.06 µg/mL (≈ 3.55 µM).

With `CCCc1cc2c(-c3ccccc3)cc(=O)oc2cc1OCC(=O)OC`, the IC50 was 5.24 µg/mL (≈ 14.9 µM).

For the molecule `N#Cc1c(C(F)(F)F)cc(-c2cccs2)nc1SCC(O)CN1CCSCC1` (configuration not stated), the IC50 is 10.9 µg/mL (≈ 24.6 µM).

For `COc1cccc(OC)c1C(=O)Nc1cccc(-c2nc3cc(C)ccc3o2)c1`, the IC50 is > 50 µg/mL (inactive).

For `CCN(CC)C(=S)NC(=O)c1ccc(Cl)cc1`, the IC50 was 1.43 µg/mL (≈ 5.28 µM).

Regarding `COc1ccc(Cc2nnc(SCC(=O)NCCc3ccccc3)o2)cc1`, the IC50 was below 0.1 µg/mL.

As for `O=C(NC12CC3CC(CC(C3)C1)C2)N1CCN(c2cccc(C(F)(F)F)c2)CC1`, the IC50 is 0.96 µg/mL (≈ 2.36 µM).

With `Cc1ccc(-c2noc(CNc3cccc(Cl)c3)n2)cc1`, the concentration for half-maximal inhibition (IC50) is 13.9 µg/mL (≈ 46.4 µM).

On to `Cc1ccc(Sc2ccc(C=O)o2)cc1`, for which the IC50 is 2.15 µg/mL (≈ 9.85 µM).

As for `Cc1cccc(N2CCN(C(=O)c3ccc(-c4ccccc4)cc3)CC2)c1C`, the IC50 is 2.34 µg/mL (≈ 6.32 µM).

For `FC(F)(F)c1ccccc1Nc1nc(-c2ccccn2)cs1`, the IC50 was below 0.1 µg/mL.

As for `CCC(C)NCCOc1ccc(C(C)(C)c2ccccc2)cc1` (configuration not stated), the IC50 is 0.91 µg/mL (≈ 2.92 µM).

Take `O=C(Oc1ccc(Cl)cc1)c1sc2ccccc2c1Cl`: the IC50 is 24.2 µg/mL (≈ 74.9 µM).

As to `O=C(OCc1ccc(S(=O)(=O)c2ccccc2)cc1)c1ccccc1Br`, the IC50 is 8.37 µg/mL (≈ 19.4 µM).

In the case of `Cc1cc(C(=O)Oc2ccccc2)ccc1[N+](=O)[O-]`, the concentration for half-maximal inhibition (IC50) is 1.87 µg/mL (≈ 7.27 µM).

Turning to `COc1cc(NC(=O)c2ccc(Br)o2)ccc1NC(=O)c1ccccc1Cl`, the IC50 was 6.8 µg/mL (≈ 15.1 µM).

Take `Cc1ccc(S(=O)(=O)Nc2ccc(NC(=O)Nc3cccc(C(F)(F)F)c3)cc2)cc1`: the concentration for half-maximal inhibition (IC50) is 1.13 µg/mL (≈ 2.51 µM).

Take `O=C(CSc1nnc(-c2cccnc2)o1)c1ccc(Oc2ccccc2)cc1`: the IC50 is > 50 µg/mL (inactive).

With `COc1cc(CNC(C)c2ccccc2)cc(Br)c1OCc1ccc(F)cc1` (configuration not stated), the IC50 was 4.06 µg/mL (≈ 9.14 µM).

For `Cc1ccc2cccc(OCCOc3ccccc3C(C)C)c2n1`, the half-inhibitory concentration (IC50) is 4.02 µg/mL (≈ 12.5 µM).

For `Cc1ccccc1/C=C/c1ccc2cccc(O)c2n1`, the half-maximal inhibitory concentration (IC50) is below 0.1 µg/mL.

Regarding `N#Cc1c(C(F)(F)F)cc(-c2cccnc2)nc1SCC(=O)N1CCc2ccccc2C1`, the IC50 is > 50 µg/mL (inactive).

With `CCN(c1ccccc1)c1ccc([N+](=O)[O-])c2nonc12`, the IC50 was 0.17 µg/mL (≈ 0.598 µM).

Take `COc1ccccc1Nc1nc(NCc2ccccc2)c2ccccc2n1`: the IC50 is 3.21 µg/mL (≈ 9.01 µM).

With `COC(=O)CSc1nnc(-c2ccc(C)cc2)o1`, the IC50 is 0.15 µg/mL (≈ 0.568 µM).

Turning to `CS(=O)(=O)c1ncc(Cl)c(C(=O)Nc2cc(C(F)(F)F)ccc2Cl)n1`, the IC50 is 17.1 µg/mL (≈ 41.3 µM).

Take `CC1CCC(C(=O)c2c(O)c3ccccc3oc2=O)CC1` (configuration not stated): the IC50 was > 50 µg/mL (inactive).

Consider `COc1ccccc1C(=O)NNC(=S)NC(=O)c1ccc(-c2ccccc2)cc1`, for which the IC50 was below 0.1 µg/mL.

Consider `O=c1cc(Cc2ccccc2)nc2c(-c3ccccc3)c[nH]n12`, for which the IC50 is 0.36 µg/mL (≈ 1.19 µM).

On to `CC(C)CCNC(=O)C(=O)Nc1ccccc1Cl`, for which the IC50 was 0.84 µg/mL (≈ 3.13 µM).

In the case of `Fc1ccc(C2=CC(c3ccc(Br)cc3)n3nnnc3N2)cc1` (configuration not stated), the half-inhibitory concentration (IC50) is 22.6 µg/mL (≈ 60.7 µM).

As for `O=C1OCCC1Sc1cccc2cccnc12` (configuration not stated), the IC50 is 7.31 µg/mL (≈ 29.8 µM).

With `c1ccc(CCN2CCN(c3ncnc4sc5c(c34)CCCC5)CC2)cc1`, the IC50 was 23.9 µg/mL (≈ 63.2 µM).

In the case of `CCN(CC)c1ccc(NC(=O)c2ccc([N+](=O)[O-])o2)c(C)c1`, the IC50 was 0.52 µg/mL (≈ 1.64 µM).

Consider `CC(C)(C)c1ccc(OCCNC(=O)c2cccc(Br)c2)cc1`, for which the IC50 was 5.19 µg/mL (≈ 13.8 µM).

On to `Clc1ccc(Cn2ncc3c(NCc4ccccc4)ncnc32)cc1`, for which the IC50 was 6.27 µg/mL (≈ 17.9 µM).

Turning to `COc1ccc(-c2csc(Nc3ccc(C)cn3)n2)cc1`, the IC50 was 7.18 µg/mL (≈ 24.1 µM).

Take `COc1cc(Br)cc2cc(C(=O)Nc3cccc(C(F)(F)F)c3)c(=O)oc12`: the IC50 was 0.11 µg/mL (≈ 0.249 µM).

Consider `C=CCNCCCCOc1ccc(Cl)cc1C(C)(C)C`, for which the IC50 is 4.64 µg/mL (≈ 15.7 µM).

`COC(=O)C(C)Sc1nnc(-c2ccc(Br)cc2)o1` (configuration not stated): the IC50 was 0.99 µg/mL (≈ 2.88 µM).

`Cc1cccc(Nc2cc(Cl)c3nonc3c2[N+](=O)[O-])c1C`: the IC50 is 1.28 µg/mL (≈ 4.02 µM).

With `O=C1C=C(c2ccccc2)C(=O)c2ccccc21`, the IC50 was 2.68 µg/mL (≈ 11.4 µM).

For `O=C(/C=C/c1ccccc1OC(=O)c1cccnc1)c1ccc(Cl)cc1`, the IC50 is 5.61 µg/mL (≈ 15.4 µM).

With `COc1ccc(OCC(=O)NNC(=S)NC(=O)C(C)(C)C)cc1`, the IC50 is 0.13 µg/mL (≈ 0.383 µM).

As to `O=C(c1cccc([N+](=O)[O-])c1)N1N=C(c2ccc(Br)cc2)CC1(O)C(F)(F)F` (configuration not stated), the IC50 was 2.13 µg/mL (≈ 4.65 µM).

For the molecule `Cc1ccc(-c2nc3ccc(Br)cc3c(=O)o2)cc1C`, the IC50 was > 50 µg/mL (inactive).

For `Cc1occc1C(=O)Nc1sc(Cc2ccccc2)cc1C(N)=O`, the IC50 was > 50 µg/mL (inactive).
